In PMC9519446, “Discovery of an Orally Active Benzoxaborole Prodrug Effective in the Treatment of Chagas Disease in Non-human Primates” (Nature microbiology, 2022):

System: recombinant T. cruzi proteins
Assay: Luminex-based multiplex serological assay (IgG to recombinant T. cruzi proteins)
Type: in vivo, rhesus macaques (Macaca mulatta)
Details: for IgG response to G10 (36) / IgG response to Kn107 (20) / IgG response to Tc1 (3) / IgG response to Tc2 (6) / IgG response to Tc3 (11) / IgG response to Tc4 (16) / IgG response to Tc5 (22) / IgG response to Tc7 (27) / IgG response to Tc8 (31) / IgG response to Tc11 (35) / IgG response to Tc17 (51) / IgG response to Tc lysate (50): treated animal T19
Method: Luminex-based multiplex serological assays were performed as previously described, [17]. For a number of smaller proteins, fusions of up to 2 individual genes are employed for some target proteins in order to expand the array of antibodies being detected while controlling costs and complexity of the assay. (TritrypDb.org identifiers: Tc1= fusion of TcBrA4_0116860 and TcYC6_0028190; Tc2= fusion of TcBrA4_0088420 and TcBrA4_0101960; Tc3 = fusion of TcBrA4_0104680 and TcBrA4_0101980; Tc4= fusion of TcBrA4_0028480 and TcBrA4_0088260; Tc5 = fusion of TcYC6_0100010 and TcBrA4_0074300; Tc7 = fusion of TcYC6_0083710 and TcBrA4_0130080; Tc8 = TcYC6_0037170; Tc11 = TcYC6_0124160; Tc17 = fusion of TcBrA4_0028230 and TcBrA4_0029760; Kn107 = TcCLB.508355.250; G10 = TcCLB.504199.20). Macaque antibody binding to individual beads in the Multiplex assays was detected with donkey anti-human IgG (H+L) conjugated to phycoerythrin (Jackson ImmunoResearch) in a 1:200 dilution.

SMILES: Cc1c(C(=O)N[C@H](C(=O)OCC2CCOCC2)C(C)C)ccc2c1B(O)OC2 [AN15368]
- IgG levels to recombinant T. cruzi proteins over time (treated NHP, up to 42 months after end of treatment): Declining IgG levels
- IgG response to G10 (36) (2017-09-13): 45.3
- IgG response to Kn107 (20) (2017-09-13): 5.3
- IgG response to Tc1 (3) (2017-09-13): 4561.8
- IgG response to Tc2 (6) (2017-09-13): 786.0
- IgG response to Tc3 (11) (2017-09-13): -22.8
- IgG response to Tc4 (16) (2017-09-13): 35.3
- IgG response to Tc5 (22) (2017-09-13): -9.5
- IgG response to Tc7 (27) (2017-09-13): 2389.8
- IgG response to Tc8 (31) (2017-09-13): 14652.0
- IgG response to Tc11 (35) (2017-09-13): 292.3
- IgG response to Tc17 (51) (2017-09-13): 1360.0
- IgG response to Tc lysate (50) (2017-09-13): 2591.5
- IgG response to G10 (36) (2017-11-17): 2.8
- IgG response to Kn107 (20) (2017-11-17): 7.0
- IgG response to Tc1 (3) (2017-11-17): 2671.5
- IgG response to Tc2 (6) (2017-11-17): 364.3
- IgG response to Tc3 (11) (2017-11-17): 25.0
- IgG response to Tc4 (16) (2017-11-17): 39.3
- IgG response to Tc5 (22) (2017-11-17): -11.5
- IgG response to Tc7 (27) (2017-11-17): 1520.3
- IgG response to Tc8 (31) (2017-11-17): 12143.5
- IgG response to Tc11 (35) (2017-11-17): 154.0
- IgG response to Tc17 (51) (2017-11-17): 1317.5
- IgG response to Tc lysate (50) (2017-11-17): 1854.3
- IgG response to G10 (36) (2017-12-06): 38.0
- IgG response to Kn107 (20) (2017-12-06): 21.8
- IgG response to Tc1 (3) (2017-12-06): 2769.0
- IgG response to Tc2 (6) (2017-12-06): 433.8
- IgG response to Tc3 (11) (2017-12-06): -25.8
- IgG response to Tc4 (16) (2017-12-06): 11.8
- IgG response to Tc5 (22) (2017-12-06): 33.5
- IgG response to Tc7 (27) (2017-12-06): 1546.5
- IgG response to Tc8 (31) (2017-12-06): 12008.3
- IgG response to Tc11 (35) (2017-12-06): 211.8
- IgG response to Tc17 (51) (2017-12-06): 1420.3
- IgG response to Tc lysate (50) (2017-12-06): 1538.8
- IgG response to G10 (36) (2017-12-20): -55.8
- IgG response to Kn107 (20) (2017-12-20): 36.8
- IgG response to Tc1 (3) (2017-12-20): 2355.8
- IgG response to Tc2 (6) (2017-12-20): 410.8
- IgG response to Tc3 (11) (2017-12-20): 34.8
- IgG response to Tc4 (16) (2017-12-20): 99.0
- IgG response to Tc5 (22) (2017-12-20): 41.0
- IgG response to Tc7 (27) (2017-12-20): 1365.3
- IgG response to Tc8 (31) (2017-12-20): 9274.0
- IgG response to Tc11 (35) (2017-12-20): 116.0
- IgG response to Tc17 (51) (2017-12-20): 1322.5
- IgG response to Tc lysate (50) (2017-12-20): 1584.0
- IgG response to G10 (36) (2018-01-09): 36.5
- IgG response to Kn107 (20) (2018-01-09): 76.0
- IgG response to Tc1 (3) (2018-01-09): 3757.5
- IgG response to Tc2 (6) (2018-01-09): 565.5
- IgG response to Tc3 (11) (2018-01-09): 64.8
- IgG response to Tc4 (16) (2018-01-09): 81.0
- IgG response to Tc5 (22) (2018-01-09): -22.0
- IgG response to Tc7 (27) (2018-01-09): 1442.3
- IgG response to Tc8 (31) (2018-01-09): 13021.3
- IgG response to Tc11 (35) (2018-01-09): 357.0
- IgG response to Tc17 (51) (2018-01-09): 2026.0
- IgG response to Tc lysate (50) (2018-01-09): 2194.3
- IgG response to G10 (36) (2018-01-23): 14.8
- IgG response to Kn107 (20) (2018-01-23): 214.8
- IgG response to Tc1 (3) (2018-01-23): 4009.3
- IgG response to Tc2 (6) (2018-01-23): 590.8
- IgG response to Tc3 (11) (2018-01-23): -15.0
- IgG response to Tc4 (16) (2018-01-23): 80.0
- IgG response to Tc5 (22) (2018-01-23): 19.8
- IgG response to Tc7 (27) (2018-01-23): 2161.8
- IgG response to Tc8 (31) (2018-01-23): 13766.8
- IgG response to Tc11 (35) (2018-01-23): 289.0
- IgG response to Tc17 (51) (2018-01-23): 2186.0
- IgG response to Tc lysate (50) (2018-01-23): 2937.3
- IgG response to G10 (36) (2018-02-27): 83.0
- IgG response to Kn107 (20) (2018-02-27): -14.5
- IgG response to Tc1 (3) (2018-02-27): 2826.0
- IgG response to Tc2 (6) (2018-02-27): 413.5
- IgG response to Tc3 (11) (2018-02-27): 17.5
- IgG response to Tc4 (16) (2018-02-27): 111.0
- IgG response to Tc5 (22) (2018-02-27): 6.8
- IgG response to Tc7 (27) (2018-02-27): 1831.8
- IgG response to Tc8 (31) (2018-02-27): 11208.3
- IgG response to Tc11 (35) (2018-02-27): 163.8
- IgG response to Tc17 (51) (2018-02-27): 1943.5
- IgG response to Tc lysate (50) (2018-02-27): 1833.0
- IgG response to G10 (36) (2018-03-28): -25.5
- IgG response to Kn107 (20) (2018-03-28): 5.5
- IgG response to Tc1 (3) (2018-03-28): 1762.3
- IgG response to Tc2 (6) (2018-03-28): 386.3
- IgG response to Tc3 (11) (2018-03-28): 60.0
- IgG response to Tc4 (16) (2018-03-28): 6.0
- IgG response to Tc5 (22) (2018-03-28): 32.5
- IgG response to Tc7 (27) (2018-03-28): 1344.3
- IgG response to Tc8 (31) (2018-03-28): 8779.3
- IgG response to Tc11 (35) (2018-03-28): 66.5
- IgG response to Tc17 (51) (2018-03-28): 1378.0
- IgG response to Tc lysate (50) (2018-03-28): 1572.0
- IgG response to G10 (36) (2019-02-19): -6.3
- IgG response to Kn107 (20) (2019-02-19): 9.8
- IgG response to Tc1 (3) (2019-02-19): 1092.5
- IgG response to Tc2 (6) (2019-02-19): 189.8
- IgG response to Tc3 (11) (2019-02-19): 63.8
- IgG response to Tc4 (16) (2019-02-19): 9.0
- IgG response to Tc5 (22) (2019-02-19): 22.0
- IgG response to Tc7 (27) (2019-02-19): 910.3
- IgG response to Tc8 (31) (2019-02-19): 5960.0
- IgG response to Tc11 (35) (2019-02-19): 51.0
- IgG response to Tc17 (51) (2019-02-19): 927.0
- IgG response to Tc lysate (50) (2019-02-19): 1211.8
- IgG response to G10 (36) (2020-06-18): -46.3
- IgG response to Kn107 (20) (2020-06-18): 15.0
- IgG response to Tc1 (3) (2020-06-18): 454.3
- IgG response to Tc2 (6) (2020-06-18): 7.3
- IgG response to Tc3 (11) (2020-06-18): 76.3
- IgG response to Tc4 (16) (2020-06-18): 6.0
- IgG response to Tc5 (22) (2020-06-18): 2.0
- IgG response to Tc7 (27) (2020-06-18): 373.3
- IgG response to Tc8 (31) (2020-06-18): 3159.8
- IgG response to Tc11 (35) (2020-06-18): 48.5
- IgG response to Tc17 (51) (2020-06-18): 793.0
- IgG response to Tc lysate (50) (2020-06-18): 640.8
- IgG response to G10 (36) (2021-05-20): 11.0
- IgG response to Kn107 (20) (2021-05-20): 65.5
- IgG response to Tc1 (3) (2021-05-20): 42.3
- IgG response to Tc2 (6) (2021-05-20): -7.8
- IgG response to Tc3 (11) (2021-05-20): 3.8
- IgG response to Tc4 (16) (2021-05-20): -20.3
- IgG response to Tc5 (22) (2021-05-20): 1.5
- IgG response to Tc7 (27) (2021-05-20): 293.3
- IgG response to Tc8 (31) (2021-05-20): 1814.0
- IgG response to Tc11 (35) (2021-05-20): 133.3
- IgG response to Tc17 (51) (2021-05-20): 399.3
- IgG response to Tc lysate (50) (2021-05-20): 384.5
